Source: PMC9482650, “Quantitative fragmentomics allow affinity mapping of interactomes” (Nature Communications, 2022)
Ends that are not written are not given here.

Experiments:
Assay in all cases: Holdup assay
Assay type in all cases: binding
NHERF3_1 PDZ = NHERF3_1 PDZ (Homo sapiens, UniProt Q5T2W1); settings: composite holdup affinity; 0.00=below quantification threshold; read-out: COMP pKd (converted)
SNX27 PDZ = SNX27 PDZ (Homo sapiens, UniProt Q96L92); settings: composite holdup affinity; 0.00=below quantification threshold; read-out: COMP pKd (converted)
PDZD2_2 PDZ = PDZD2_2 PDZ (Homo sapiens, UniProt O15018); settings: composite holdup affinity; 0.00=below quantification threshold; read-out: COMP pKd (converted)
PDZD7_3 PDZ = PDZD7_3 PDZ (Homo sapiens, UniProt Q9H5P4); settings: composite holdup affinity; 0.00=below quantification threshold; read-out: COMP pKd (converted)
MAGI3_2 PDZ = MAGI3_2 PDZ (Homo sapiens, UniProt Q5TCQ9); settings: composite holdup affinity; 0.00=below quantification threshold; read-out: COMP pKd (converted)
MAGI2_2 PDZ = MAGI2_2 PDZ (Homo sapiens, UniProt Q86UL8); settings: composite holdup affinity; 0.00=below quantification threshold; read-out: COMP pKd (converted)
SYNJ2BP PDZ = biological target: T1, SYNJ2BP PDZ (Homo sapiens, UniProt P57105); settings: composite holdup affinity; 0.00=below quantification threshold; read-out: COMP pKd (converted)
T1 sequence (P57105 13-100 limits assumed): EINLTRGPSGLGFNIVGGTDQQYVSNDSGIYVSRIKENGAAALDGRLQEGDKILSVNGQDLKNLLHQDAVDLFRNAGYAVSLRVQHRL

DLG2_2 PDZ = DLG2_2 PDZ (Homo sapiens, UniProt Q15700); settings: composite holdup affinity; 0.00=below quantification threshold; read-out: COMP pKd (converted)
DLG4_1 PDZ = DLG4_1 PDZ (Homo sapiens, UniProt P78352); settings: composite holdup affinity; 0.00=below quantification threshold; read-out: COMP pKd (converted)
DLG1_1 PDZ = DLG1_1 PDZ (Homo sapiens, UniProt Q12959); settings: composite holdup affinity; 0.00=below quantification threshold; read-out: COMP pKd (converted)
LNX2_2 PDZ = LNX2_2 PDZ (Homo sapiens, UniProt Q8N448); settings: composite holdup affinity; 0.00=below quantification threshold; read-out: COMP pKd (converted)
SCRIB_3 PDZ = SCRIB_3 PDZ (Homo sapiens, UniProt Q14160); settings: composite holdup affinity; 0.00=below quantification threshold; read-out: COMP pKd (converted)
SCRIB_1 PDZ = SCRIB_1 PDZ (Homo sapiens, UniProt Q14160); settings: composite holdup affinity; 0.00=below quantification threshold; read-out: COMP pKd (converted)
PTPN3 PDZ = PTPN3 PDZ (Homo sapiens, UniProt P26045); settings: composite holdup affinity; 0.00=below quantification threshold; read-out: COMP pKd (converted)
MAST1 PDZ = MAST1 PDZ (Homo sapiens, UniProt Q9Y2H9); settings: composite holdup affinity; 0.00=below quantification threshold; read-out: COMP pKd (converted)
TX1BP3 PDZ = biological target: T2, TX1BP3 PDZ (Homo sapiens, UniProt O14907); settings: composite holdup affinity; 0.00=below quantification threshold; read-out: COMP pKd (converted)
T2 sequence (O14907 15-112 limits assumed): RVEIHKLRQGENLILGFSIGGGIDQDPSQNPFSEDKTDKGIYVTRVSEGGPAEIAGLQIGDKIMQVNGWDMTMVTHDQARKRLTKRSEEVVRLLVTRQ

SNTG2 PDZ = SNTG2 PDZ (Homo sapiens, UniProt Q9NY99); settings: composite holdup affinity; 0.00=below quantification threshold; read-out: COMP pKd (converted)
SNTB1 PDZ = SNTB1 PDZ (Homo sapiens, UniProt Q13884); settings: composite holdup affinity; 0.00=below quantification threshold; read-out: COMP pKd (converted)
SNTA1 PDZ = SNTA1 PDZ (Homo sapiens, UniProt Q13424); settings: composite holdup affinity; 0.00=below quantification threshold; read-out: COMP pKd (converted)
RHPN1 PDZ = RHPN1 PDZ (Homo sapiens, UniProt Q8TCX5); settings: composite holdup affinity; 0.00=below quantification threshold; read-out: COMP pKd (converted)
SCRIB2 PDZ = biological target: T3, SCRIB2 PDZ (Homo sapiens, UniProt Q14160); settings: composite holdup affinity; 0.00=below quantification threshold; read-out: COMP pKd (converted)
T3 sequence (Q14160 862-950 limits assumed): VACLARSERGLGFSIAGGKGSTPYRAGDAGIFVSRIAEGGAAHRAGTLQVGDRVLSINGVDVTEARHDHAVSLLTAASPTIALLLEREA

LAP2 PDZ = LAP2 PDZ (Homo sapiens, UniProt Q96RT1); settings: composite holdup affinity; 0.00=below quantification threshold; read-out: COMP pKd (converted)
PDZRN4_1 PDZ = PDZRN4_1 PDZ (Homo sapiens, UniProt Q6ZMN7); settings: composite holdup affinity; 0.00=below quantification threshold; read-out: COMP pKd (converted)
PDZRN3_1 PDZ = PDZRN3_1 PDZ (Homo sapiens, UniProt Q9UPQ7); settings: composite holdup affinity; 0.00=below quantification threshold; read-out: COMP pKd (converted)
DFNB31_1 PDZ = DFNB31_1 PDZ (Homo sapiens, UniProt Q9P202); settings: composite holdup affinity; 0.00=below quantification threshold; read-out: COMP pKd (converted)
MAGI2_5 PDZ = MAGI2_5 PDZ (Homo sapiens, UniProt Q86UL8); settings: composite holdup affinity; 0.00=below quantification threshold; read-out: COMP pKd (converted)
ARHGEF12 PDZ = ARHGEF12 PDZ (Homo sapiens, UniProt Q9NZN5); settings: composite holdup affinity; 0.00=below quantification threshold; read-out: COMP pKd (converted)
ARHGEF11 PDZ = ARHGEF11 PDZ (Homo sapiens, UniProt O15085); settings: composite holdup affinity; 0.00=below quantification threshold; read-out: COMP pKd (converted)
DLG3_1 PDZ = DLG3_1 PDZ (Homo sapiens, UniProt Q92796); settings: composite holdup affinity; 0.00=below quantification threshold; read-out: COMP pKd (converted)
DLG2_3 PDZ = DLG2_3 PDZ (Homo sapiens, UniProt Q15700); settings: composite holdup affinity; 0.00=below quantification threshold; read-out: COMP pKd (converted)
DLG1_3 PDZ = DLG1_3 PDZ (Homo sapiens, UniProt Q12959); settings: composite holdup affinity; 0.00=below quantification threshold; read-out: COMP pKd (converted)
MAGI2_3 PDZ = MAGI2_3 PDZ (Homo sapiens, UniProt Q86UL8); settings: composite holdup affinity; 0.00=below quantification threshold; read-out: COMP pKd (converted)
NOS1 PDZ = NOS1 PDZ (Homo sapiens, UniProt P29475); settings: composite holdup affinity; 0.00=below quantification threshold; read-out: COMP pKd (converted)
APBA1_2 PDZ = APBA1_2 PDZ (Homo sapiens, UniProt Q02410); settings: composite holdup affinity; 0.00=below quantification threshold; read-out: COMP pKd (converted)
GRIP2_7 PDZ = GRIP2_7 PDZ (Homo sapiens, UniProt Q9C0E4); settings: composite holdup affinity; 0.00=below quantification threshold; read-out: COMP pKd (converted)
GRIP1_2 PDZ = GRIP1_2 PDZ (Homo sapiens, UniProt Q9Y3R0); settings: composite holdup affinity; 0.00=below quantification threshold; read-out: COMP pKd (converted)
PDZD2_4 PDZ = PDZD2_4 PDZ (Homo sapiens, UniProt O15018); settings: sheet PPI_convert; read-out: affinity to PDZ PDZD2_4 (converted)
Sequence of PDZD2_4 PDZ (O15018 728-813 limits assumed): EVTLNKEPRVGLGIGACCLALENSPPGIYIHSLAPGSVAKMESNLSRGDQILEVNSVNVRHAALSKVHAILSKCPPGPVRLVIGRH

Sequence of DLG2_2 PDZ (Q15700 193-279 limits assumed): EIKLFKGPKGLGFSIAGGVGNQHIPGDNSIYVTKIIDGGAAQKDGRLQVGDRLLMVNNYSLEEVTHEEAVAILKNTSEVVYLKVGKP
Sequence of PDZRN3_1 PDZ (Q9UPQ7 249-339 limits assumed): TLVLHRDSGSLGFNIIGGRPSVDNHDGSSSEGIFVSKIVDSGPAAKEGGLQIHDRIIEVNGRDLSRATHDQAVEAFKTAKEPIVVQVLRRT
Sequence of NOS1 PDZ (P29475 17-99 limits assumed): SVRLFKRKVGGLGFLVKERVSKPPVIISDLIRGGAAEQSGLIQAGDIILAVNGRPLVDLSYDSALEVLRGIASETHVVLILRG
Sequence of PDZD7_3 PDZ (Q9H5P4 862-934 limits assumed): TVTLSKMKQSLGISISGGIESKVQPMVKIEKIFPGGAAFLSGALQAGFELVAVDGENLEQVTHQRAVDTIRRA
Sequence of PTPN3 PDZ (P26045 510-582 limits assumed): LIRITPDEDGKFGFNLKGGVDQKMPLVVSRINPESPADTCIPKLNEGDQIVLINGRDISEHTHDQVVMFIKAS
Sequence of SCRIB_3 PDZ (Q14160 1004-1093 limits assumed): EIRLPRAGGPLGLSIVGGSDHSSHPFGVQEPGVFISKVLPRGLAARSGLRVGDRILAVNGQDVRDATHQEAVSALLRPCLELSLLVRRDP
Sequence of MAGI3_2 PDZ (Q5TCQ9 410-492 limits assumed): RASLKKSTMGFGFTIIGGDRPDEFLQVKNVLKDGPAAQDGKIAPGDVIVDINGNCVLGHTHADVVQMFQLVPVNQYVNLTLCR
Sequence of SNTB1 PDZ (Q13884 112-195 limits assumed): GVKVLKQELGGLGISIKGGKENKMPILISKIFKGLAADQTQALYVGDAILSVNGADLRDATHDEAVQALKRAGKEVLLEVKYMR
Sequence of NHERF3_1 PDZ (Q5T2W1 9-90 limits assumed): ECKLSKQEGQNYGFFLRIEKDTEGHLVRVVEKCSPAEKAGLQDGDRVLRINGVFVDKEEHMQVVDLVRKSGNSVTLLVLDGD
Sequence of DLG2_3 PDZ (Q15700 421-501 limits assumed): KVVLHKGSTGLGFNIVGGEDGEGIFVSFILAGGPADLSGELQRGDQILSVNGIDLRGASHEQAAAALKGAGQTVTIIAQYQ
Sequence of GRIP2_7 PDZ (Q9C0E4 941-1023 limits assumed): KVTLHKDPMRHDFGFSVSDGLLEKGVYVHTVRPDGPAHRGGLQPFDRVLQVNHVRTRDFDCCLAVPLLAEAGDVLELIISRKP
Sequence of LAP2 PDZ (Q96RT1 1321-1410 limits assumed): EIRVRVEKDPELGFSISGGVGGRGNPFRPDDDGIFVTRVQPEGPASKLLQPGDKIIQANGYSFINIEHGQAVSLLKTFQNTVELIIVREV
Sequence of RHPN1 PDZ (Q8TCX5 513-592 limits assumed): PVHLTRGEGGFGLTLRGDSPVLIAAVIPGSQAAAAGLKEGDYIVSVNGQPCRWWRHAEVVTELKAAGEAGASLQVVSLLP
Sequence of SNTG2 PDZ (Q9NY99 73-156 limits assumed): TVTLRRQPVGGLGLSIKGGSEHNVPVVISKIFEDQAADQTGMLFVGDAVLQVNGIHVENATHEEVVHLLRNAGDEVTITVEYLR
Sequence of PDZRN4_1 PDZ (Q6ZMN7 224-314 limits assumed): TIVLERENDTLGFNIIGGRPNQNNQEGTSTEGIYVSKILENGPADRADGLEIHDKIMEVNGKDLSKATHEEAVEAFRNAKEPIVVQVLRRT
Sequence of ARHGEF11 PDZ (O15085 47-126 limits assumed): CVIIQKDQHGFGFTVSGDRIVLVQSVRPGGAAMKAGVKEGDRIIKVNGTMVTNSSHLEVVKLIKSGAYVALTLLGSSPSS
Sequence of LNX2_2 PDZ (Q8N448 339-422 limits assumed): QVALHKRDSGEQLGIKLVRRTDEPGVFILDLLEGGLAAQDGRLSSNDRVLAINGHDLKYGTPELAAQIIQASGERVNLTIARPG
Sequence of MAGI2_3 PDZ (Q86UL8 605-683 limits assumed): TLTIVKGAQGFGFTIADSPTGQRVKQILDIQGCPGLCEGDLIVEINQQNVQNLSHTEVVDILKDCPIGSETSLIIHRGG
Sequence of PDZD2_2 PDZ (O15018 334-419 limits assumed): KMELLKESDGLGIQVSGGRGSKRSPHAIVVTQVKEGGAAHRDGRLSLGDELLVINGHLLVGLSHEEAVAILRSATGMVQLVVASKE
Sequence of DLG4_1 PDZ (P78352 65-151): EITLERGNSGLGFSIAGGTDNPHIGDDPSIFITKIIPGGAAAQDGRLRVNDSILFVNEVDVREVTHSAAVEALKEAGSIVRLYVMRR
Sequence of MAST1 PDZ (Q9Y2H9 967-1055 limits assumed): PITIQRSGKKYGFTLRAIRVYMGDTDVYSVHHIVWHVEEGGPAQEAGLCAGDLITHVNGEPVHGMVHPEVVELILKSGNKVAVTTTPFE
Sequence of SNTA1 PDZ (Q13424 87-170 limits assumed): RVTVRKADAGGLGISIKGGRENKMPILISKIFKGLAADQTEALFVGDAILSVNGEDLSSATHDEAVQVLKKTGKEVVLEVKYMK
Sequence of ARHGEF12 PDZ (Q9NZN5 72-151 limits assumed): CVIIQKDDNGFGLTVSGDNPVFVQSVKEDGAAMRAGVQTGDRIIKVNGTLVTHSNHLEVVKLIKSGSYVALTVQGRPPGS
Sequence of APBA1_2 PDZ (Q02410 747-822 limits assumed): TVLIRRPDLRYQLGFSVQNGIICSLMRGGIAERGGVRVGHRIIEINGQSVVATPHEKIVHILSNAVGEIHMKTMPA
Sequence of MAGI2_2 PDZ (Q86UL8 426-510 limits assumed): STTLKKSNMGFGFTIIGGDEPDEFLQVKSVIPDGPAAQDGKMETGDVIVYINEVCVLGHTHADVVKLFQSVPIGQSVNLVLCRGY
Sequence of MAGI2_5 PDZ (Q86UL8 920-1010 limits assumed): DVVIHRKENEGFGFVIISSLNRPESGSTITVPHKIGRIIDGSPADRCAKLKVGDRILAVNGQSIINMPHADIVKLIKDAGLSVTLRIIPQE
Sequence of SCRIB_1 PDZ (Q14160 728-815 limits assumed): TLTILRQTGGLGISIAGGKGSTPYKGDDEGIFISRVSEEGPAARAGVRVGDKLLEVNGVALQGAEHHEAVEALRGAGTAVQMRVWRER
Sequence of GRIP1_2 PDZ (Q9Y3R0 150-238 limits assumed): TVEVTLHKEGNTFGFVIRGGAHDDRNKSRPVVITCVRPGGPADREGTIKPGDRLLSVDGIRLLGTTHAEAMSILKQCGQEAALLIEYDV
Sequence of DLG3_1 PDZ (Q92796 130-217 limits assumed): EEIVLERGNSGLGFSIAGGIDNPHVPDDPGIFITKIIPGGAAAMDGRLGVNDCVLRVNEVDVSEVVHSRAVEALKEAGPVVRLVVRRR
Sequence of DFNB31_1 PDZ (Q9P202 140-223 limits assumed): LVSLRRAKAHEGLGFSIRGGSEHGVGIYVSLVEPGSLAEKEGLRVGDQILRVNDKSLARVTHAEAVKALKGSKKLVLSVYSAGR

With RHTTSTETAV [HPV30-E6] the Kd (NHERF3_1 PDZ) was 13.5 µM, the Kd (SNX27 PDZ) was 2.29 µM and the Kd (PDZD2_2 PDZ) was 38 µM. It also gave a Kd (PDZD7_3 PDZ) of 79.4 µM, a Kd (MAGI3_2 PDZ) of 4.37 µM and a Kd (MAGI2_2 PDZ) of 9.12 µM. For the same sequence, the Kd (SYNJ2BP PDZ) was 4.37 µM, the Kd (DLG2_2 PDZ) was 6.46 µM and the Kd (DLG4_1 PDZ) was 12 µM. For the same sequence, the Kd (DLG1_1 PDZ) was 11.7 µM, the Kd (LNX2_2 PDZ) was 170 µM and the Kd (SCRIB_3 PDZ) was 9.55 µM. For the same sequence, the Kd (SCRIB_1 PDZ) was 17.4 µM, the Kd (PTPN3 PDZ) was 7.41 µM and the Kd (MAST1 PDZ) was 21.9 µM. For the same sequence, the Kd (TX1BP3 PDZ) was 22.4 µM, the Kd (SNTG2 PDZ) was 21.4 µM and the Kd (SNTB1 PDZ) was 7.94 µM. The Kd (SNTA1 PDZ) was 19.1 µM, the Kd (RHPN1 PDZ) was 83.2 µM and the Kd (SCRIB2 PDZ) was 7.76 µM. For the same sequence, the Kd (LAP2 PDZ) was 34.7 µM, the Kd (PDZRN4_1 PDZ) was 29.5 µM and the Kd (PDZRN3_1 PDZ) was 20.9 µM. It also gave a Kd (DFNB31_1 PDZ) of 53.7 µM, a Kd (MAGI2_5 PDZ) of 49 µM and a Kd (ARHGEF12 PDZ) of 63.1 µM. The Kd (ARHGEF11 PDZ) was 44.7 µM, the Kd (DLG3_1 PDZ) was 35.5 µM and the Kd (DLG2_3 PDZ) was 16.2 µM. It also gave a Kd (DLG1_3 PDZ) of 40.7 µM, a Kd (MAGI2_3 PDZ) of 26.9 µM and a Kd (NOS1 PDZ) of 23.4 µM. For the same sequence, the Kd (APBA1_2 PDZ) was 58.9 µM, the Kd (GRIP2_7 PDZ) was 145 µM and the Kd (GRIP1_2 PDZ) was 166 µM. It also gave a Kd (PDZD2_4 PDZ) of 16.6 µM.

RTRQRNETQV [HPV51-E6] gave a Kd (NHERF3_1 PDZ) of 67.6 µM, a Kd (SNX27 PDZ) of 14.1 µM and a Kd (PDZD2_2 PDZ) of 263 µM. The Kd (PDZD7_3 PDZ) was 132 µM, the Kd (MAGI3_2 PDZ) was 1.48 µM and the Kd (MAGI2_2 PDZ) was 0.219 µM. It also gave a Kd (SYNJ2BP PDZ) of 9.55 µM, a Kd (DLG2_2 PDZ) of 10.7 µM and a Kd (DLG4_1 PDZ) of 12.6 µM. The Kd (DLG1_1 PDZ) was 16.6 µM, the Kd (LNX2_2 PDZ) was 245 µM and the Kd (SCRIB_3 PDZ) was 67.6 µM. For the same sequence, the Kd (SCRIB_1 PDZ) was 27.5 µM, the Kd (PTPN3 PDZ) was 41.7 µM and the Kd (MAST1 PDZ) was 58.9 µM. It also gave a Kd (TX1BP3 PDZ) of 74.1 µM, a Kd (SNTG2 PDZ) of 60.3 µM and a Kd (SNTB1 PDZ) of 81.3 µM. It also gave a Kd (SNTA1 PDZ) of 58.9 µM, a Kd (RHPN1 PDZ) of 200 µM and a Kd (SCRIB2 PDZ) of 40.7 µM. For the same sequence, the Kd (LAP2 PDZ) was 204 µM, the Kd (PDZRN4_1 PDZ) was 69.2 µM and the Kd (PDZRN3_1 PDZ) was 87.1 µM. The Kd (DFNB31_1 PDZ) was 339 µM, the Kd (MAGI2_5 PDZ) was 75.9 µM and the Kd (ARHGEF12 PDZ) was 186 µM. For the same sequence, the Kd (ARHGEF11 PDZ) was 204 µM, the Kd (DLG3_1 PDZ) was 52.5 µM and the Kd (DLG2_3 PDZ) was 17.8 µM. For the same sequence, the Kd (DLG1_3 PDZ) was 28.8 µM, the Kd (MAGI2_3 PDZ) was 95.5 µM and the Kd (NOS1 PDZ) was 123 µM. It also gave a Kd (APBA1_2 PDZ) of 275 µM, a Kd (GRIP2_7 PDZ) of 331 µM and a Kd (GRIP1_2 PDZ) of 347 µM. For the same sequence, the Kd (PDZD2_4 PDZ) was 45.7 µM.
